From patent US12410155B2, “Salt form and crystal form of tetrahydrocyclohepta indazole compound” (Zhejiang Yangli Pharmaceutical Technology Co., Ltd., priority 2021, dated 2025) come the findings set out here.

Read-outs that look alike come from different tables or passages of the source.

Common to all, as to format: cell-based
One assay concerns T-47D cells. Nature of the assay: T-47D cell proliferation inhibition assay (CTG). The following applies: Homo sapiens, T47D, 1 nM estradiol. The method, then: (§1) (4) MCF-7, T-47D, and CAMA-1 Cell Proliferation Inhibition Assay
T-47D: RPMI-1640 (without phenol red) containing 10% charcoal-stripped serum (500 mL culture medium containing 450 mL RPMI-1640, 50 mL charcoal-stripped serum).
(§2) The inhibitory effect of the test compound of formula (I) on the proliferation of MCF-7, CAMA-1, and T-47D cells was analyzed. For MCF-7 cells, ten concentration gradients ranging from 100 nM to 0.0003815 nM were tested, with three replicates for each concentration. For CAMA-1 cells, nine concentration gradients ranging from 100 nM to 0.001526 nM were tested, also with three replicates for each concentration. For T-47D cells, nine concentration gradients ranging from 2 μM to 0.00512 nM were tested, with three replicates for each concentration. Each experiment was conducted twice independently.
The T-47D cells were treated with starvation medium for three days, followed by trypsin digestion, centrifugation, resuspension, and counting. Cell suspensions were prepared using the corresponding culture medium, and 40 μL of the suspension was added to each well of a 384-well plate. The plate was then incubated at 37° C. in a cell incubator with 5% CO2. The test compound of formula (I) was dissolved in DMSO to an initial concentration of 400 μM and subjected to a 5-fold serial dilution to achieve nine different concentrations. After overnight incubation, the diluted compound was further diluted with the corresponding cell culture medium. The resulting mixture was transferred to the respective wells of the cell plate, starting with a final concentration of 2 μM, followed by a 5-fold serial dilution to achieve nine concentrations. The positive control wells contained 2 μM fulvestrant, and 1 nM estradiol was added to the entire plate. The plate was mixed, centrifuged, and incubated at 37° C. in a cell incubator with 5% CO2 for the specified number of days according to the above table.
(§3) After incubation for the specified time, the cell culture plate was removed, and the CTG reagent was added. […] The readings were taken using the Envision multi-label analyzer. […]

For another assay, the system named is CAMA-1 cells. Nature of the assay: CAMA-1 cell proliferation inhibition assay (CTG). The following applies: Homo sapiens, 1 nM estradiol. The method, then: as §1
CAMA-1: EMEM (without phenol red) containing 10% charcoal-stripped serum (500 mL culture medium containing 440 mL EMEM, 50 mL charcoal-stripped serum, 5 mL NEAA, 5 mL 100 mM sodium pyruvate).
as §2
The CAMA-1 cells were treated with starvation medium for three days, followed by trypsin digestion, centrifugation, resuspension, and counting. Cell suspensions were prepared using the corresponding culture medium, and 80 μL of the suspension was added to each well of a 96-well plate. The plate was then incubated at 37° C. in a cell incubator with 5% CO2. The test compound of formula (I) was dissolved in DMSO to an initial concentration of 20 μM and subjected to a 4-fold serial dilution to achieve nine different concentrations. After overnight incubation, the diluted compound was further diluted with the corresponding cell culture medium. The resulting mixture was transferred to the respective wells of the cell plate, starting with a final concentration of 100 nM, followed by a 4-fold serial dilution to achieve nine concentrations. The positive control wells contained 2 μM fulvestrant, and 1 nM estradiol was added to the entire plate. […]
as §3

For the next assay, the target named is T1, ERα (Homo sapiens, UniProt P03372).
T1 sequence (P03372 311-547 limits assumed): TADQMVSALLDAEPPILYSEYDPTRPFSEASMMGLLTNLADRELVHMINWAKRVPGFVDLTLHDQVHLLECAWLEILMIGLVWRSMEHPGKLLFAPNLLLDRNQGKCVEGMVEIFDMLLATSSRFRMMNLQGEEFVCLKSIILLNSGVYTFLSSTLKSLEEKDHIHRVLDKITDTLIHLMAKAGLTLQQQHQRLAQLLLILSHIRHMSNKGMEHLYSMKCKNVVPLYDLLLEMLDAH
Nature of the assay: HEK293/GAL4/ERα antagonist assay (luciferase reporter). The following applies: 1 nM estradiol, read-out: IC50 (nM), antagonistic effect. The method, then: (2) HEK293/GAL4/ERα Antagonist Assay
DMEM (without phenol red) containing 10% charcoal-stripped serum (i.e., 450 mL DMEM and 50 mL charcoal-stripped serum in 500 mL medium)
The antagonistic effect of the compound of formula (I) on ERα, was analyzed using triplicate wells with compound concentration ranging from 200 nM to 0.00256 nM.
• 1) The HEK293/GAL4/ERα cell suspension was collected and centrifuged at 1000 rpm for 5 minutes. The supernatant was discarded, and the cells were resuspended in pre-warmed experimental medium. After counting, the cell suspension was diluted with experimental medium. 40000 cells per well were seeded into a 96-well cell culture plate, with 80 μL of cell suspension per well. […] Subsequently, 10 μL of assay medium containing 10 nM estradiol was added to each well. For blank controls, 10 μL of assay medium was added. A final estradiol concentration of 1 nM was ensured. […] The plate was incubated at 25° C. for 2 minutes. After incubation, the luminescence signal was then detected using an EnVision plate reader. Data Analysis:
GraphPad Prism software was used to plot the data and calculate the IC50 values for the compound.

As usually defined, the IC50 is the midpoint of a concentration-inhibition curve.

Regarding `FCCCN1CC[C@H](Nc2cnc(C3=C(CC(F)(F)F)CCCc4c3ccc3[nH]nc(F)c43)cn2)C1` [Compound of formula (I)], the IC50 in the assay with T-47D cells (First experiment) is 1.98 nM; with T-47D cells (Mean ± SD) it was 2.35 ± 0.37 nM; in the assay on T-47D cells (Second experiment) it was 2.71 nM; in the assay on CAMA-1 cells (CAMA-1, First experiment), 1.19 nM; in the assay with CAMA-1 cells (CAMA-1, Mean ± SD), 1.29 ± 0.1 nM; in the assay with CAMA-1 cells (CAMA-1, Second experiment), 1.39 nM. The IC50 at ERα (Mean ± SD) is 0.0857 ± 0.0103 nM; at ERα (N = 1) it was 0.096 nM; on ERα (N = 2), 0.075 nM.
